What was measured:
human A2a receptor = human A2a receptor (Homo sapiens (Human), UniProt P29274); assay: A2a competition binding assay using Scintillation Proximity technology
Procedure: (§1) Binding affinities of compounds of the invention for the human A2a receptor were determined in a competition binding assay using Scintillation Proximity technology. Thus, 1* μg, or preferably 0.25 μg of membranes from HEK293 cells expressing the human A2a receptor were incubated with a compound of the invention at concentrations ranging from 3000 nM to 0.15 nM in a reaction mixture containing also 0.5 nM of a tritiated form of 5-amino-7-[2-phenethyl]-2-(furan-2-yl)-7H-pyrazolo[4,3-e][1,2,4]triazolo[1,5-c]pyrimidine (the tritiated compound) and 25 μg of wheat germ agglutin-coated yttrium silicate SPA beads for one hour at room temperature with agitation. The beads were then allowed to settle to the bottom of the wells for 1 hr, after which the membrane-associated radioactivity was determined by scintillation counting in a TopCount microplate reader. Ki values were determined using the Cheng-Prusoff equation.
HEK293 cells expressing the human, rat, dog or monkey adenosine 2a receptor (Purchased from Perkin-Elmer # RBHA2AM400UA).
The Tritiated compound was prepared in-house by MRL Radiochemistry according to published methods.
Wheat germ agglutinin-coated yttrium silicate SPA beads (GE Healthcare #RPNQ0023). Dilute to 25 mg/ml in assay buffer.
Assay Buffer was prepared in house: Dulbecco's calcium and magnesium free phosphate buffered saline+10 mM MgCl2
Adenosine deaminase from calf intestine, 10 mg/2 ml (Roche #10 102 105 001).
A2a antagonist standard (9-chloro-1-(2-furanyl)-[1,2,4]triazolo1,5-c]quinazolin-5-amine from Tocris Bioscience)
Make eight 1:3 serial dilutions in 100% DMSO from a 3 mM compound stock
Transfer 50 nl of compound into a 384-well OptiPlate (Perkin Elmer).
Typically, final concentrations of compound used in the assay ranged from 3000 nM to 0.152 nM.
Dilute a solution of the Tritiated compound to 1.25 nM in assay buffer. This is a 2.5× solution. The final concentration in the assay is 0.5 nM. Calculate the concentration by counting two 5 μl aliquots.
Use *1 ug or preferrably 0.25 ug of membrane/well. Dilute membranes to 9.7 μg/ml in assay buffer. Treat with 20 ug/ml adenosine deaminase (ADA) for 15 minutes at room temperature to degrade endogenous adenosine.
Use 25 μg/well wheat germ agglutinin-coated yttrium silicate SPA beads.
Mix ADA-treated membranes and SPA beads together for 30 min prior to assay.
To the Perkin-Elmer Optiplate-384 containing the compound titration add 20 μl of 2.5× solution of the Tritiated compound and 30 μl of the membrane-bead mixture. Incubate for one hour at room temperature with agitation.
Include total binding (assay buffer+1% DMSO) and non-specific binding (CGS15943, 1 μM) wells.
Allow the beads to settle for one hour.
A curve fitting program (i.e., Prism, Activity Base, Chemcart) is used to determine the EC50. The Ki value is calculated using the Cheng-Prusoff equation. Ki=EC50/(1+(radioligand concentration/Kd))
Using the foregoing assay method, the Ki results were obtained using the compounds of the invention described in Tables IIIa, IIIb, and IV. Each example compound tested is reported in the following format: Example number: A2a Ki reported in nM. Thus, for example, the compound Ex-1 was determined to have an Ki using the above-described assay and calculations, of 10.0 nM.

human A1 receptor = human A1 receptor (Homo sapiens (Human), UniProt P30542); assay: A1 competition binding assay using Scintillation Proximity technology; selectivity = A1 binding Ki / A2a binding Ki; settings: A1 binding Ki divided by A2a binding Ki
human A1 receptor, sequence (P30542 whole entry): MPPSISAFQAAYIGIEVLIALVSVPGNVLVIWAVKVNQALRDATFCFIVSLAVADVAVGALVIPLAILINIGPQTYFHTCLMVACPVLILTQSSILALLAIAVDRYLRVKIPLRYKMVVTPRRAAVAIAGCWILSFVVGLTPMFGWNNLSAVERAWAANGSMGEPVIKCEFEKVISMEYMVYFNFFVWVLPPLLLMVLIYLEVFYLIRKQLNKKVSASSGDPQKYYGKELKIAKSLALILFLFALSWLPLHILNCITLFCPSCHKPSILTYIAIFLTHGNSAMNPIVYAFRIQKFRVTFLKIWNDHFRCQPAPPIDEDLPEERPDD
Procedure: as §1, with “A1” for “A2a”, “5” for “1* μg, or preferably 0.25 μg”, “CHO-K1” for “HEK293”, “0.7” for “0.5”, “8-Cyclopentyl-1,3-dipropylxanthine” for “5-amino-7-[2-phenethyl]-2-(furan-2-yl)-7H-pyrazolo[4,3-e][1,2,4]triazolo[1,5-c]pyrimidine”, “in a similar fashion described with A2a binding.” for “using the Cheng-Prusoff equation.”
• Cells expressing the human, rat, dog or monkey adenosine 1 receptor (Purchased from Perkin-Elmer # ES-010-M400UA • [^3H]DPCPX (purchased from Perkin-Elmer NET-974, 8-cyclopentyl-1,3-dipropylxanthine, [dipropyl-2,3-^3H(N)]. • Wheatgerm agglutinin-coated yttrium silicate SPA beads (Purchased from GE Healthcare #RPNQ0023). Dilute to 25 mg/ml in assay buffer. Store at 4° C. • Assay Buffer—Dulbecco's phosphate buffered saline without calcium and without magnesium+10 mM MgCl2 • Adenosine deaminase from calf intestine, 10 mg/2 ml (Roche #10 102 105 001). • DMSO • DPCPX (A1 antagonist) from Tocris Bioscience Compound Dilution • Dilute compounds to 1 mM in 100% DMSO
Make serial dilutions as necessary (i.e., 1:10, 1:3) in 100% DMSO.
Dilute 1:20 into assay buffer (i.e. 3 ul into 57 ul buffer). This is a 5× solution in 5% DMSO.
• Dilute [^3H]DPCPX to 1.75 nM in assay buffer. This is a 2.5× solution. The final concentration in the assay is 0.7 nM. Calculate the concentration by counting two 5 ul aliquots. Membrane Preparation • Use 5 ug of membrane/well. Dilute membranes to 250 ug/ml in assay buffer. Treat with 20 ug/ml adenosine deaminase (ADA) for 15 minutes at room temperature to degrade endogenous adenosine. Membrane-Bead Mixture • Use 25 ug/well wheatgerm agglutinin-coated yttrium silicate SPA beads • Mix ADA-treated membranes and SPA beads together for 30 min prior to assay. Assay Assembly • Add in order to a Perkin-Elmer Optiplate-384: 10 ul of 5× compound, 20 ul of 2.5× [^3H]DPCPX, 20 ul membrane-bead mixture. Incubate for one hour at room temperature with agitation. • Include total binding (assay buffer+1% DMSO) and non-specific binding (DPCPX, 1 uM) wells. Counting and Calculations

[1] = * assay run with 1 μg of membranes versus 0.25 μg, HEK293 cells expressing the human A2a receptor
[2] = 0.25 μg of membranes from HEK293 cells expressing the human A2a receptor

human A2a receptor, sequence (P29274 whole entry): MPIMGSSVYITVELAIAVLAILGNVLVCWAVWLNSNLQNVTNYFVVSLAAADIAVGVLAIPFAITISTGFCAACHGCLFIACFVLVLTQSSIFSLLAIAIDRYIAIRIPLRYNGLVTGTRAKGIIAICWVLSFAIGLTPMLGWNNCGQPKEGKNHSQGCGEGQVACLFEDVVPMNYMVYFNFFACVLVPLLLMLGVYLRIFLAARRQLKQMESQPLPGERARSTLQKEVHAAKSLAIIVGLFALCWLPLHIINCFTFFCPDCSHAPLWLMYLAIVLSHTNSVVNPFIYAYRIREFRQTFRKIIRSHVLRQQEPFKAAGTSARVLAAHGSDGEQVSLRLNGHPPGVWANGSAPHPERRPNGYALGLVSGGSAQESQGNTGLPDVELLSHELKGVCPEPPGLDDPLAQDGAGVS

| Ki (human A2a receptor; [1]) | A2a selectivity (A2a A1 binding selectivity) (human A1 receptor) | Ki (human A2a receptor; [2]) | SMILES |
| --- | --- | --- | --- |
| 1.9 nM | 70 |  | [2H]C([2H])(NC(=O)c1nc(N)nc2c(OC)cccc12)c1cccc(C([2H])([2H])c2cccc(OCCOC)c2)n1 [Example 106, 2-amino-N-[dideuterio-[6-[dideuterio-[3-(2-methoxyethoxy)phenyl]methyl]-2-pyridyl]methyl]-8-methoxy-quinazoline-4-carboxamide] |
|  | 115 | 0.5 nM | Cc1ccc(F)c(CNC(=O)c2nc(N)nc3c(F)cccc23)n1 [Example 76, 2-amino-8-fluoro-N-[(3-fluoro-6-methyl-2-pyridyl)methyl]quinazoline-4-carboxamide] |
|  | 14 | 5.2 nM | CC1(O)CCN(c2cccc(CNC(=O)c3nc(N)nc4c(F)cccc34)n2)CC1 [Example 79, 2-amino-8-fluoro-N-[[6-(4-hydroxy-4-methyl-1-piperidyl)-2-pyridyl]methyl]quinazoline-4-carboxamide] |
|  | 55 | 6.5 nM | Cc1cccc(CNC(=O)c2nc(N)nc3c(Cl)cc(Cl)cc23)n1 [Example 93, 2-amino-6,8-dichloro-N-[(6-methyl-2-pyridyl)methyl]quinazoline-4-carboxamide] |
|  | 8 | 229 nM | Nc1nc(C(=O)NCc2ncccn2)c2cccc(I)c2n1 [Example 99, 2-amino-8-iodo-N-(pyrimidin-2-ylmethyl)quinazoline-4-carboxamide] |
|  | 100 | 0.9 nM | COc1cccc2c(C(=O)NCc3cccn(C)c3=O)nc(N)nc12 [Example 61, 2-amino-8-methoxy-N-[(1-methyl-2-oxo-3-pyridyl)methyl]quinazoline-4-carboxamide] |
|  | 370 | 1.8 nM | COc1cccc2c(C(=O)NC3CCc4cccnc43)nc(N)nc12 (stereo not shown) [Example 32, 2-amino-N-(6,7-dihydro-5H-cyclopenta[b]pyridin-7-yl)-8-methoxy-quinazoline-4-carboxamide] |
| 0.7 nM | 12 |  | Nc1nc(C(=O)NCc2cccc3cccnc23)c2cccc(Br)c2n1 [Example 96, 2-amino-8-bromo-N-(8-quinolylmethyl)quinazoline-4-carboxamide] |

The next lines start with the compound.

| SMILES | Ki (human A2a receptor; [1]) | A2a selectivity (A2a A1 binding selectivity) (human A1 receptor) | Ki (human A2a receptor; [2]) |
| --- | --- | --- | --- |
| COc1ccc(C(C)(C)O)nc1CNC(=O)c1nc(N)nc2c(OC)cccc12 [Example 1, 2-amino-N-[[6-(1-hydroxy-1-methyl-ethyl)-3-methoxy-2-pyridyl]methyl]-8-methoxy-quinazoline-4-carboxamide] |  | 145 | 10 nM |
| COc1cccc2c(C(=O)NCc3nc(C(C)(C)O)ccc3C)nc(N)nc12 [Example 2, 2-amino-N-[[6-(1-hydroxy-1-methyl-ethyl)-3-methyl-2-pyridyl]methyl]-8-methoxy-quinazoline-4-carboxamide] |  | 193 | 0.6 nM |
| COc1cccc2c(C(=O)NCc3nc(C)ccc3C)nc(N)nc12 [Example 11, 2-amino-N-[(3,6-dimethyl-2-pyridyl)methyl]-8-methoxy-quinazoline-4-carboxamide] |  | 208 | 0.2 nM |
| COc1cccc2c(C(=O)NCc3ccc4ccccc4n3)nc(N)nc12 [Example 30, 2-amino-8-methoxy-N-(2-quinolylmethyl)quinazoline-4-carboxamide] |  | 138 | 1.5 nM |
| COc1cccc2c(C(=O)NCc3ccc(F)cn3)nc(N)nc12 [Example 26, 2-amino-N-[(5-fluoro-2-pyridyl)methyl]-8-methoxy-quinazoline-4-carboxamide] |  | 89 | 6.6 nM |
| Nc1nc(C(=O)NCc2cccc3cncn23)c2cccc(F)c2n1 [Example 80, 2-amino-8-fluoro-N-(imidazo[1,5-a]pyridin-5-ylmethyl)quinazoline-4-carboxamide] | 6.2 nM | 21 |  |
| COc1cccc2c(C(=O)NCc3cccc(C)n3)nc(N)nc12 [Example 15, 2-amino-8-methoxy-N-[(6-methyl-2-pyridyl)methyl]quinazoline-4-carboxamide] |  | 319 | 0.5 nM |
| Nc1nc(C(=O)NCc2cccc(C(F)F)n2)c2cccc(F)c2n1 [Example 71, 2-amino-N-[[6-(difluoromethyl)-2-pyridyl]methyl]-8-fluoro-quinazoline-4-carboxamide] |  | 60 | 3.6 nM |
| Cc1ccc(CCNC(=O)c2nc(N)nc3c(F)cccc23)nc1 [Example 73, 2-amino-8-fluoro-N-[2-(5-methyl-2-pyridyl)ethyl)quinazoline-4-carboxamide] |  | 33 | 225 nM |
| COc1cccc2c(C(=O)NCc3cccc(COCC4CCCC4)n3)nc(N)nc12 [Example 49, 2-amino-N-[[6-(cyclopentylmethoxy-methyl)-2-pyridyl]methyl]-8-methoxy-quinazoline-4-carboxamide] |  | 251 | 0.5 nM |
| Nc1nc(C(=O)NCc2cccc(Cc3ccc(F)c(F)c3)n2)c2cccc(F)c2n1 [Example 102, 2-amino-N-[[6-[(3,4-difluorophenyl)methyl]-2-pyridyl]methyl]-8-fluoro-quinazoline-4-carboxamide] |  | 33 | 1.2 nM |
| COc1cccc2c(C(=O)NCc3ccccc3-c3cccnc3)nc(N)nc12 [Example 41, 2-amino-8-methoxy-N-[[2-(3-pyridyl)phenyl]methyl]quinazoline-4-carboxamide] | 9.2 nM | 56 |  |
| COC(=O)c1ccccc1CNC(=O)c1nc(N)nc2c(F)cccc12 [Example 74, methyl 2-[[(2-amino-8-fluoro-quinazoline-4-carbonyl)amino]methyl]benzoate] | 2.5 nM | 18 |  |
| Nc1nc(C(=O)NCc2cccc3c2NCCC3)c2cccc(F)c2n1 [Example 90] |  |  | 3 nM |

Reference: patent US10138212B2, “Aminoquinazoline compounds as A2A antagonist” (Merck Sharp & Dohme Corp., priority 2015, dated 2018)
